Assay results reported in PMC11480411, “Mucosal sugars delineate pyrazine vs pyrazinone autoinducer signaling in Klebsiella oxytoca” (Nature Communications, 2024).
“And” between values parts separate entries of the source, which are not always exact repeats. Identical values can stand only once.

Tests used:
[1] = test system: leup operon (leupeptin BGC) promoter in K. oxytoca ATCC 8724; assay: GFP-based transcriptional reporter for the leup operon; type: cell-based, Klebsiella oxytoca; settings: carbohydrate screen, M9 + casamino acid + 0.4% indicated sugar, 30 °C, 24 h
Description: We previously examined a panel of 84 clinical K. oxytoca isolates (including recently renamed Klebsiella michiganensis isolates) for the presence of either the leup operon or npsB, an NRPS of the tilimycin/tilivalline gene cluster. […] While the roles of tilivalline and tilimycin in hemorrhagic colitis are well studied[8],[9], the operon for leupeptin biosynthesis is “silent” in K. oxytoca under typical laboratory culture conditions (i.e., leupeptin production is undetectable). Therefore, our study commenced by exploring growth conditions required to trigger leupeptin biosynthesis in K. oxytoca. To achieve this, we generated a green fluorescent protein (GFP)-based reporter system to monitor leup transcription in K. oxytoca ATCC 8724 (recently renamed as Klebsiella michiganensis (ATCC 8724), Fig. 1a). We utilized λ-red recombineering techniques[38] to replace the first biosynthetic gene (leupA) of the leupeptin BGC with a GFP-spectinomycin resistance cassette. […] Consequently, conditions that elicit transcription of the leupeptin BGC can be monitored by GFP fluorescence intensity.
5 mL of the leupeptin reporter strain was cultured aerobically in 10 g/L of LB (Becton Dickinson), yeast extract, GAM (HiMedia Laboratories), horse liver extract (HiMedia Laboratories), malt extract (VWR), meat extract (HiMedia Laboratories), YPD (Dot Scienticifc), brain heart infusion (Becton Dickinson), porcine mucin (Sigma-Aldrich, M1778), clostridial (Becton Dickinson), TSB (VWR), or casamino acid supplemented (5 g/L, VWR) M9 minimal salts (MP Biomedicals) at 30 °C for 24 h at 250 rpm. Cultures were lysed via sonication, centrifuged, and 150 µL of the supernatants were aliquoted into black well clear bottom 96 well plates. GFP fluorescence measurements were performed on a BioTek Synergy H1 plate reader with an excitation wavelength of 488 nm and an emission wavelength of 525 nm. For the carbohydrate screen, the leupeptin reporter strain was cultured in M9 minimal medium (MPbio) supplemented with casamino acid (5 g/L, VWR) and 0.4% indicated sugar aerobically at 30 °C for 24 h at 250 rpm.

[2] = biological target: T1, histamine receptor H4 (HRH4) (Homo sapiens, UniProt Q9H3N8); assay: PRESTO-Tango GPCR screen and dose-response; type: cell-based; settings: for HRH4 dose-response raw reporter signal (Fig. 5b source data): replicate wells
T1 construct: expressed in transfected cells; host or cells: HTLA cells (HEK293 line stably expressing β-arrestin-TEV and tTA-Luciferase)
T1 sequence (Q9H3N8 whole entry): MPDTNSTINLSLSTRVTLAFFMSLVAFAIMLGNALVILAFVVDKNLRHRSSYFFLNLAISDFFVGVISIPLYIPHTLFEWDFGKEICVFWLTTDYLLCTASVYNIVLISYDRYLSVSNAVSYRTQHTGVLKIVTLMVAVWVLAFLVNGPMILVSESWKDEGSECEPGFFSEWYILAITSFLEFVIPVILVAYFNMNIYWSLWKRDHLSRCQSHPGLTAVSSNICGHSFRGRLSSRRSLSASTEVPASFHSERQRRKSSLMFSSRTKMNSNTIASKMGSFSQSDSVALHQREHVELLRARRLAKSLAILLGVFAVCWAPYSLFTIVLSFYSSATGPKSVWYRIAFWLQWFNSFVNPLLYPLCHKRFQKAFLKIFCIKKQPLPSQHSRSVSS
Experimental: (§1) The PRESTO-Tango analyses were performed as previously published. Briefly, HTLA cells, a HEK293 cell line that stably expresses β-arrestin-TEV and tTA-Luciferase (a kind gift from Gilad Barnea, Brown University), were plated in 96-well tissue culture plates (Eppendorf) in DMEM containing 10% FBS and 1% Penicillin/Streptomycin. One day after plating (after reaching approximately 90% confluence), 200 ng per well GPCR-Tango plasmids[37] in 20 μL DMEM were individually mixed with 400 ng polyethylenimine (Polysciences) in an equal volume of DMEM and incubated for 20 min at room temperature before adding the transfection mixture to the HTLA cells. 16-24 h after transfection, medium was replaced with 180 μL fresh DMEM containing 1% Penicillin/Streptomycin and 10 mM HEPES and 20 μL of 3 or 3-Homo to reach a final concentration of 100 μM. Supernatants were aspirated 20 h after stimulation and 50 μl per well of Bright-Glo solution (Promega) diluted 20-fold with PBS containing 20 mM HEPES was added into each well. After 15 min incubation at room temperature, luminescence was quantified using a Spectramax i3x microplate reader (Molecular Devices). Activation fold for each sample was calculated by dividing relative luminescence units (RLU) for each condition by RLUs from PBS control. Dose response curves of each chemical were performed in a similar way with varying the ligand concentration from 10^−4 M to 10^−15 M.

[3] = biological target: T2, HRH2 (Homo sapiens, UniProt P25021); assay: PRESTO-Tango GPCR screen and dose-response; type: cell-based; settings: for HRH2 dose-response raw reporter signal (Fig. 5b source data): replicate wells
T2 construct: expressed in transfected cells; host or cells: HTLA cells (HEK293 line stably expressing β-arrestin-TEV and tTA-Luciferase)
T2 sequence (P25021 whole entry): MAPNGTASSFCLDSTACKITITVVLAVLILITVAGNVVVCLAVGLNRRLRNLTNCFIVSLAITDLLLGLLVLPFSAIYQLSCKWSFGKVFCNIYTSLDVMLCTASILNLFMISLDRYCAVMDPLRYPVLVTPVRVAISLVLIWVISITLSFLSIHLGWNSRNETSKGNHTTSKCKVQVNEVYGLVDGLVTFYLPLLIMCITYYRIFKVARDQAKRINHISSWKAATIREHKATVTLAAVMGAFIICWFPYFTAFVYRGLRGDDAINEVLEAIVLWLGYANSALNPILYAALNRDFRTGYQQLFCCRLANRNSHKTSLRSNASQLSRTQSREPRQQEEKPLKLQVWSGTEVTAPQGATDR
Experimental: as §1

[4] = biological target: T3, HRH1 (Homo sapiens, UniProt P35367); assay: PRESTO-Tango GPCR screen and dose-response; type: cell-based; settings: for HRH1 dose-response raw reporter signal (Fig. 5b source data): replicate wells
T3 construct: expressed in transfected cells; host or cells: HTLA cells (HEK293 line stably expressing β-arrestin-TEV and tTA-Luciferase)
T3 sequence (P35367 whole entry): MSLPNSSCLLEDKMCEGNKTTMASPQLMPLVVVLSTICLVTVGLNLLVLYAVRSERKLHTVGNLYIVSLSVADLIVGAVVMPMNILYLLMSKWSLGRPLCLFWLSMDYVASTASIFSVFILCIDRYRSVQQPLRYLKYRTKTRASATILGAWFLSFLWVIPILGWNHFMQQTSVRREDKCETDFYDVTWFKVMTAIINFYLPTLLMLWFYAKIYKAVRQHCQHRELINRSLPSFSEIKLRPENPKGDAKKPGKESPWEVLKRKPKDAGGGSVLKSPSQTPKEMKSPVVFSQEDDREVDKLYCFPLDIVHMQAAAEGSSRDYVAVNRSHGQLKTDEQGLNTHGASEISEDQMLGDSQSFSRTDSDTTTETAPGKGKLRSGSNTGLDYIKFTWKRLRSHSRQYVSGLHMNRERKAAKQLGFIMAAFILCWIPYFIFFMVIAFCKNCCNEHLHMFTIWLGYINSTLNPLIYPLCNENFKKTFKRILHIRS
Experimental: as §1

[5] = biological target: T4, HRH3 (Homo sapiens, UniProt Q9Y5N1); assay: PRESTO-Tango GPCR screen and dose-response; type: cell-based; settings: for HRH3 dose-response raw reporter signal (Fig. 5b source data): replicate wells
T4 construct: expressed in transfected cells; host or cells: HTLA cells (HEK293 line stably expressing β-arrestin-TEV and tTA-Luciferase)
T4 sequence (Q9Y5N1 whole entry): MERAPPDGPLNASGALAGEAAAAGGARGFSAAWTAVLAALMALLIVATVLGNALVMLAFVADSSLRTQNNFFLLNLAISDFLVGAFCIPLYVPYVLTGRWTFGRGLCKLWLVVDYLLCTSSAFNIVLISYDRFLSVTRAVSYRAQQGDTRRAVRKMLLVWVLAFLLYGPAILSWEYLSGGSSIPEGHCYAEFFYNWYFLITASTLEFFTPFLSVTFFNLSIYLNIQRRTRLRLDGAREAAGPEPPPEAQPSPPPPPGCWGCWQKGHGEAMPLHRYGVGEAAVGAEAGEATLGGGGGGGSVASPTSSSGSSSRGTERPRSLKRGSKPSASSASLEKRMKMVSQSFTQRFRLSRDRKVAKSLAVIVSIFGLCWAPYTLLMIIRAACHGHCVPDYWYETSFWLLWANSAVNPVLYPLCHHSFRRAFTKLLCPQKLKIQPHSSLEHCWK
Experimental: as §1

OC[C@H]1O[C@@H](O[C@H]2[C@H](O)[C@@H](O)C(O)O[C@@H]2CO)[C@H](O)[C@@H](O)[C@H]1O (mixture of isomers) [Lactose]
GFP fluorescence, GFP Strain + Media ([1]; leup GFP reporter strain): 5276 RFU
GFP fluorescence, WT + Media ([1]; wildtype K. oxytoca without reporter (background)): 4982 RFU

COC(=O)CCc1nc(Cc2ccccc2)c(CCC(=O)O)nc1Cc1ccccc1 [9-Me]
HRH4 dose-response raw reporter signal (Fig. 5b source data) ([2]; Log(10)Conc (M) -5): 427 and 460
HRH4 dose-response raw reporter signal (Fig. 5b source data) ([2]; Log(10)Conc (M) -6): 342 and 348
HRH4 dose-response raw reporter signal (Fig. 5b source data) ([2]; Log(10)Conc (M) -7): 348 and 321
HRH4 dose-response raw reporter signal (Fig. 5b source data) ([2]; Log(10)Conc (M) -8): 410 and 321
HRH4 dose-response raw reporter signal (Fig. 5b source data) ([2]; Log(10)Conc (M) -9): 324 and 251
HRH4 dose-response raw reporter signal (Fig. 5b source data) ([2]; Log(10)Conc (M) -10): 377 and 368
HRH4 dose-response raw reporter signal (Fig. 5b source data) ([2]; Log(10)Conc (M) -11): 262 and 307
HRH4 dose-response raw reporter signal (Fig. 5b source data) ([2]; Log(10)Conc (M) -12): 407 and 336
HRH4 dose-response raw reporter signal (Fig. 5b source data) ([2]; Log(10)Conc (M) -13): 298 and 395
HRH4 dose-response raw reporter signal (Fig. 5b source data) ([2]; Log(10)Conc (M) -14): 268
HRH4 dose-response raw reporter signal (Fig. 5b source data) ([2]; Log(10)Conc (M) -15): 215 and 212
activity towards HRH4 ([2]; PRESTO-Tango dose-response): no activity
HRH2 dose-response raw reporter signal (Fig. 5b source data) ([3]; Log(10)Conc (M) -4): 83 and 65 and 100
HRH2 dose-response raw reporter signal (Fig. 5b source data) ([3]; Log(10)Conc (M) -5): 41 and 50 and 56
HRH2 dose-response raw reporter signal (Fig. 5b source data) ([3]; Log(10)Conc (M) -6): 56 and 47 and 32
HRH2 dose-response raw reporter signal (Fig. 5b source data) ([3]; Log(10)Conc (M) -7): 65 and 62 and 35
HRH2 dose-response raw reporter signal (Fig. 5b source data) ([3]; Log(10)Conc (M) -8): 97 and 47 and 41
HRH2 dose-response raw reporter signal (Fig. 5b source data) ([3]; Log(10)Conc (M) -9): 41 and 35 and 77
HRH2 dose-response raw reporter signal (Fig. 5b source data) ([3]; Log(10)Conc (M) -10): 38 and 80 and 41
HRH2 dose-response raw reporter signal (Fig. 5b source data) ([3]; Log(10)Conc (M) -11): 91 and 32 and 56
HRH2 dose-response raw reporter signal (Fig. 5b source data) ([3]; Log(10)Conc (M) -12): 53 and 71 and 59
HRH2 dose-response raw reporter signal (Fig. 5b source data) ([3]; Log(10)Conc (M) -13): 38 (2×) and 85
HRH2 dose-response raw reporter signal (Fig. 5b source data) ([3]; Log(10)Conc (M) -14): 38 and 65 and 56
HRH2 dose-response raw reporter signal (Fig. 5b source data) ([3]; Log(10)Conc (M) -15): 32 and 41 and 83
activity towards HRH2 ([3]; PRESTO-Tango dose-response): no activity
HRH1 dose-response raw reporter signal (Fig. 5b source data) ([4]; Log(10)Conc (M) -4): 50545 and 47748
HRH1 dose-response raw reporter signal (Fig. 5b source data) ([4]; Log(10)Conc (M) -5): 50057 and 47492
HRH1 dose-response raw reporter signal (Fig. 5b source data) ([4]; Log(10)Conc (M) -6): 50434 and 47377
HRH1 dose-response raw reporter signal (Fig. 5b source data) ([4]; Log(10)Conc (M) -7): 50075 and 47693
HRH1 dose-response raw reporter signal (Fig. 5b source data) ([4]; Log(10)Conc (M) -8): 49488 and 47793
HRH1 dose-response raw reporter signal (Fig. 5b source data) ([4]; Log(10)Conc (M) -9): 48159 and 46626
HRH1 dose-response raw reporter signal (Fig. 5b source data) ([4]; Log(10)Conc (M) -10): 48713 and 47646
HRH1 dose-response raw reporter signal (Fig. 5b source data) ([4]; Log(10)Conc (M) -11): 49358 and 47065
HRH1 dose-response raw reporter signal (Fig. 5b source data) ([4]; Log(10)Conc (M) -12): 50278 and 46581
HRH1 dose-response raw reporter signal (Fig. 5b source data) ([4]; Log(10)Conc (M) -13): 49874 and 48613
HRH1 dose-response raw reporter signal (Fig. 5b source data) ([4]; Log(10)Conc (M) -14): 50243 and 49745
HRH1 dose-response raw reporter signal (Fig. 5b source data) ([4]; Log(10)Conc (M) -15): 45927 and 43079
activity towards HRH1 ([4]; PRESTO-Tango dose-response): no activity
HRH3 dose-response raw reporter signal (Fig. 5b source data) ([5]; Log(10)Conc (M) -4): 348 and 274 and 324
HRH3 dose-response raw reporter signal (Fig. 5b source data) ([5]; Log(10)Conc (M) -5): 112 and 156 and 153
HRH3 dose-response raw reporter signal (Fig. 5b source data) ([5]; Log(10)Conc (M) -6): 127 and 174 and 142
HRH3 dose-response raw reporter signal (Fig. 5b source data) ([5]; Log(10)Conc (M) -7): 91 and 130 and 165
HRH3 dose-response raw reporter signal (Fig. 5b source data) ([5]; Log(10)Conc (M) -8): 168 and 112 and 162
HRH3 dose-response raw reporter signal (Fig. 5b source data) ([5]; Log(10)Conc (M) -9): 127 and 103 and 139
HRH3 dose-response raw reporter signal (Fig. 5b source data) ([5]; Log(10)Conc (M) -10): 174 and 144 and 115
HRH3 dose-response raw reporter signal (Fig. 5b source data) ([5]; Log(10)Conc (M) -11): 162 (2×) and 97
HRH3 dose-response raw reporter signal (Fig. 5b source data) ([5]; Log(10)Conc (M) -12): 139 and 168 and 144
HRH3 dose-response raw reporter signal (Fig. 5b source data) ([5]; Log(10)Conc (M) -13): 183 and 168 and 153
HRH3 dose-response raw reporter signal (Fig. 5b source data) ([5]; Log(10)Conc (M) -14): 183 and 85 and 150
HRH3 dose-response raw reporter signal (Fig. 5b source data) ([5]; Log(10)Conc (M) -15): 94 and 115 and 112
activity towards HRH3 ([5]; PRESTO-Tango dose-response): no activity
